These results are taken from patent US8998396B2, “Treatment liquid for liquid jetting device, and cartridge containing the same” (Ricoh Company, Ltd., priority 2009, dated 2015).

The nature of the series: Surfactant solubility in the main solvent, judged visually. To be noted: main solvent: water, glycerin and 1,3-butylene glycol. In kind it is physicochemical. An excerpt:
The surfactant was solved into the main solvent and the solubility thereof was judged visually.
A: Solved completely (transparent and colorless)

With `CCCCCCCCN1CCCC1=O` [LP-100, N-Octyl-2-Pyrrolidone], the “Solubility in the main solvent (in words)” value is reported as “solves in the main solvent”. As to `CCCCCCCCCCCCN1CCCC1=O` [LP-300, N-Dodecyl-2-Pyrrolidone], the “Solubility in the main solvent (in words)” value is listed as “cannot solve in the main solvent”.
